Where two headings read alike, the source gives them in different places.
Columns and labels:
in vivo [1] = conditions: mouse, in vivo, po; for selectivity ratio: LD50 per os/ED50 per os
Method: (§1) The toxicity of the products to be studied was investigated by the oral administration, using an esophageal tube, of each of the said products to male mice with a body weight of 18 to 22 g, divided into groups each containing 10 to 20 animals. The mortality was recorded over a 14-day period.
(§2) The results obtained, which are expressed in the form of LD50 in mg/kg, are collated in Table II below.

male mice [2] = assay: in vivo; conditions: for LD50: male mice
Method: as §1, §2

[3] = test system: convulsions induced by pentetrazole (PTZ); assay: Anticonvulsant properties: convulsions induced by pentetrazole (PTZ), oral, mice; assay type: in vivo; conditions: per os, male mice, 30 min after administration, pentetrazole 125 mg/kg i.p.; for ED50: Mus musculus, po, 0.5 h, read-out: ED50 in respect of convulsions induced by PTZ
Text: (§7) The anticonvulsant properties were investigated on male mice, thirty minutes after the oral administration of the substances to be studied, by the induction of convulsive seizures.

[4] = test system: convulsions induced by supramaximal electroshock (MCE); assay: Anticonvulsant properties: convulsions induced by supramaximal electroshock (MCE), oral, mice; assay type: in vivo; conditions: per os, male mice, 30 min after administration; for ED50: Mus musculus, po, 0.5 h, read-out: ED50 in respect of convulsions induced by MCE
Method: as §7
These seizures are caused either by the intraperitoneal injection of pentetrazole (125 mg/kg) or by electrical stimulation of the cornea (supra-maximal electroshock, abbreviated to MCE).
MCE: supramaximal electroshock;
*: ED50 in mg/kg, determined per os on groups each containing ten

in vivo [5] = assay type: in vivo; conditions: mouse, in vivo, po
Method: (§3) The neurotoxic properties were assessed on male mice by the so-called "Rota-rod" test carried out thirty minutes after the oral administration of the substances to be studied. The animals (divided into groups each containing ten male mice per dose and per product) are installed on the rod and their fall is observed over the next two minutes.
(§4) The results obtained are expressed in the form of the 50% neurotoxic dose (TD50) per os, which is the dose causing 50% of the animals to fall.
(§5) Protection index: TD50 per os/ED50 per os
(§6) *dose determined per os on groups each containing ten male mice.

male mice [6] = assay: in vivo; assay type: in vivo
Method: as §3, §4, §5, §6

[7] = LD50, Table II, male mice, 14 days
[8] = LD50, Table IV, per os, male mice
[9] = versus sodium valproate and trimethadione
[10] = TD50 per os/ED50 per os, MCE, read-out: Protection index MCE
[11] = TD50 per os/ED50 per os, PTZ, read-out: Protection index PTZ
[12] = Rota-rod, per os, male mice, 30 min after administration, read-out: TD50

SMILES: CON=C(C)c1scnc1C [Ex. 1, 5-(1-methoxyiminoethyl)-4-methylthiazole]
- LD50 at 336 h (in vivo [1]; [7]): 740 mg/kg
- LD50 at 336 h (in vivo [1]; [8]): 740 mg/kg
- selectivity ratio (in vivo [1]; Therapeutic index MCE, MCE): 8.8
- selectivity ratio (in vivo [1]; Therapeutic index PTZ, PTZ): 11.9
- therapeutic indices compared with the reference products (male mice [2]; mouse, in vivo): better than those of the reference products
- ED50 [3]: 62 mg/kg
- ED50 [4]: 84 mg/kg
- selectivity ratio (in vivo [5]; Protection index MCE): 4.1
- selectivity ratio (in vivo [5]; Protection index PTZ): 5.6
- TD50 at 0.5 h (in vivo [5]; TD50): 347 mg/kg
- protection indices compared with the reference products (male mice [6]; mouse, in vivo): better than those of the reference products

SMILES: CON=C(C)c1scnc1C.Cl [Ex. 2, 5-(1-methoxyiminoethyl)-4-methylthiazole hydrochloride]
- LD50 at 336 h (in vivo [1]; [7]): 1000 mg/kg
- LD50 at 336 h (in vivo [1]; [8]): 1000 mg/kg
- Therapeutic index MCE (male mice [2]; LD50 per os/ED50 per os, MCE): 10.0
- Therapeutic index PTZ (male mice [2]; LD50 per os/ED50 per os, PTZ): 13.9
- ED50 [3]: 72 mg/kg
- ED50 [4]: 100 mg/kg
- TD50 at 0.5 h (in vivo [5]; TD50): 270 mg/kg
- Protection index MCE (male mice [6]; mouse, in vivo, po): 2.7
- Protection index PTZ (male mice [6]; mouse, in vivo, po): 3.8

SMILES: CCON=C(C)c1scnc1C [Ex. 4]
- LD50 at 336 h (in vivo [1]; [7]): 1000 mg/kg
- ED50 [3]: 120 mg/kg
- ED50 [4]: 150 mg/kg

SMILES: CCON=C(C)c1scnc1C [Ex. 5]
- LD50 at 336 h (in vivo [1]; LD50): 1000 mg/kg
- selectivity ratio (in vivo [1]; Therapeutic index MCE, MCE): 8.3
- selectivity ratio (in vivo [1]; Therapeutic index PTZ, PTZ): 10
- therapeutic indices compared with the reference products (male mice [2]; mouse, in vivo): better than those of the reference products
- ED50 in respect of convulsions induced by PTZ ([3]; 30 min): 100 mg/kg
- ED50 in respect of convulsions induced by MCE ([4]; 30 min): 120 mg/kg
- selectivity ratio (in vivo [5]; Protection index MCE): 6.3
- selectivity ratio (in vivo [5]; Protection index PTZ): 7.5
- TD50 at 0.5 h (in vivo [5]; TD50): 750 mg/kg
- protection indices compared with the reference products (male mice [6]; mouse, in vivo): better than those of the reference products

SMILES: CC(=NOC(C)C)c1scnc1C [Ex. 6]
- LD50 at 336 h (in vivo [1]; [7]): > 1000 mg/kg
- ED50 [3]: 112 mg/kg
- ED50 [4]: > 200 mg/kg

SMILES: CC(=NOC(C)C)c1scnc1C [Ex. 7]
- LD50 (male mice [2]; Table II, oral, 14 days): > 1000 mg/kg
- ED50 in respect of convulsions induced by PTZ ([3]; 30 min): 140 mg/kg
- ED50 in respect of convulsions induced by MCE [4]: > 200 mg/kg

SMILES: CCCCON=C(C)c1scnc1C [Ex. 8, 5-(1-n-butoxyiminoethyl)-4-methylthiazole]
- LD50 at 336 h (in vivo [1]; [7]): 750 mg/kg
- ED50 [3]: > 200 mg/kg
- ED50 [4]: > 200 mg/kg

SMILES: CCCCON=C(C)c1scnc1C.Cl [Ex. 9, 5-(1-n-butoxyiminoethyl)-4-methylthiazole hydrochloride]
- LD50 at 336 h (in vivo [1]; [7]): > 1000 mg/kg
- LD50 at 336 h (in vivo [1]; [8]): > 1000 mg/kg
- selectivity ratio (in vivo [1]; Therapeutic index MCE, MCE): > 6.7
- selectivity ratio (in vivo [1]; Therapeutic index PTZ, PTZ): > 7.3
- ED50 [3]: 138 mg/kg
- ED50 [4]: 150 mg/kg
- selectivity ratio (in vivo [5]; Protection index MCE): 4
- selectivity ratio (in vivo [5]; Protection index PTZ): 4.4
- TD50 at 0.5 h (in vivo [5]; TD50): 600 mg/kg

SMILES: CC(=NOCc1ccccc1F)c1scnc1C [Ex. 13]
- LD50 at 336 h (in vivo [1]): > 1000 mg/kg
- selectivity ratio (in vivo [1]; Therapeutic index MCE, MCE): > 5.4
- selectivity ratio (in vivo [1]; Therapeutic index PTZ, PTZ): > 9.5
- LD50 (male mice [2]; Table IV, per os, 20160 min): > 1000 mg/kg
- therapeutic indices compared with the reference products (male mice [2]; [9]): better than those of the reference products
- ED50 [3]: 105 mg/kg
- ED50 [4]: 184 mg/kg
- selectivity ratio (in vivo [5]; [10]): 4
- selectivity ratio (in vivo [5]; [11]): 7.1
- TD50 at 0.5 h (in vivo [5]; [12]): 750 mg/kg
- protection indices compared with the reference products (male mice [6]; [9]): better than those of the reference products

SMILES: CC(=NOCc1cccc(Cl)c1)c1scnc1C [Ex. 14]
- LD50 at 336 h (in vivo [1]; [7]): > 1000 mg/kg
- LD50 at 336 h (in vivo [1]; [8]): > 1000 mg/kg
- selectivity ratio (in vivo [1]; Therapeutic index PTZ, PTZ): > 7.1
- ED50 [3]: 140 mg/kg
- ED50 [4]: > 200 mg/kg
- selectivity ratio (in vivo [5]; [11]): 5.4
- TD50 at 0.5 h (in vivo [5]; [12]): 750 mg/kg

SMILES: CC(=NOCc1ccccc1C)c1scnc1C [Ex. 15]
- LD50 at 336 h (in vivo [1]; [7]): > 1000 mg/kg
- ED50 [3]: 60 mg/kg

SMILES: CC(=NOCc1cccc(C(F)(F)F)c1)c1scnc1C [Ex. 16]
- LD50 at 336 h (in vivo [1]; [7]): > 1000 mg/kg
- LD50 at 336 h (in vivo [1]; [8]): > 1000 mg/kg
- selectivity ratio (in vivo [1]; Therapeutic index PTZ, PTZ): > 10.4
- therapeutic indices compared with the reference products (male mice [2]; [9]): better than those of the reference products
- ED50 [3]: 96 mg/kg
- ED50 [4]: > 200 mg/kg
- selectivity ratio (in vivo [5]; [11]): 15.6
- TD50 at 0.5 h (in vivo [5]; [12]): 1500 mg/kg
- protection indices compared with the reference products (male mice [6]; [9]): better than those of the reference products

SMILES: CCOc1ccccc1CON=C(C)c1scnc1C [Ex. 17]
- LD50 at 336 h (in vivo [1]; [7]): > 1000 mg/kg
- ED50 [3]: > 200 mg/kg
- ED50 [4]: > 200 mg/kg

SMILES: COC(=O)CON=C(C)c1scnc1C [Ex. 18]
- LD50 at 336 h (in vivo [1]; [7]): > 1000 mg/kg
- ED50 [3]: > 200 mg/kg
- ED50 [4]: > 200 mg/kg

SMILES: CC(=NOCC(=O)O)c1scnc1C [Ex. 19]
- LD50 at 336 h (in vivo [1]; [7]): > 1000 mg/kg
- ED50 [3]: > 200 mg/kg
- ED50 [4]: > 200 mg/kg

SMILES: CC(=NOCCN(C)C)c1scnc1C [Ex. 20]
- LD50 at 336 h (in vivo [1]; [7]): > 1000 mg/kg
- ED50 [3]: > 200 mg/kg
- ED50 [4]: > 200 mg/kg

SMILES: CC(=NOCCN1CCCC1)c1scnc1C [Ex. 21]
- LD50 at 336 h (in vivo [1]; [7]): 360 mg/kg
- ED50 [3]: > 200 mg/kg
- ED50 [4]: > 200 mg/kg

SMILES: CC(=NO)c1sc(Cl)nc1C [Ex. 22]
- LD50 at 336 h (in vivo [1]; [7]): > 1000 mg/kg
- ED50 [3]: > 200 mg/kg
- ED50 [4]: > 200 mg/kg

SMILES: CC(=NO)c1sc(Br)nc1C [Ex. 23]
- LD50 at 336 h (in vivo [1]; [7]): > 1000 mg/kg
- ED50 [3]: > 200 mg/kg
- ED50 [4]: > 200 mg/kg

SMILES: CON=C(C)c1sc(Cl)nc1C [Ex. 24]
- LD50 at 336 h (in vivo [1]; [7]): > 1000 mg/kg
- ED50 [3]: > 200 mg/kg
- ED50 [4]: > 200 mg/kg

SMILES: CON=C(C)c1sc(Br)nc1C [Ex. 25]
- LD50 at 336 h (in vivo [1]; [7]): > 1000 mg/kg
- ED50 [3]: > 200 mg/kg
- ED50 [4]: > 200 mg/kg

SMILES: CON=C(C)c1sc(C)nc1C [Ex. 26]
- LD50 at 336 h (in vivo [1]; [7]): > 1000 mg/kg
- ED50 [3]: > 200 mg/kg
- ED50 [4]: > 200 mg/kg

SMILES: CON=C(C)c1sc(C)nc1C [Ex. 27]
- LD50 (male mice [2]; Table II, oral, 14 days, 20160 min): 1000 mg/kg
- ED50 in respect of convulsions induced by PTZ [3]: > 200 mg/kg
- ED50 in respect of convulsions induced by MCE [4]: > 200 mg/kg

SMILES: CC(=NO)c1scnc1C [Ex. 28, 5-(1-hydroxyiminoethyl)-4-methylthiazole]
- LD50 at 336 h (in vivo [1]; [7]): 1000 mg/kg
- ED50 [3]: 126 mg/kg
- ED50 [4]: > 200 mg/kg

SMILES: CC(=NO)c1scnc1C [Ex. 29]
- LD50 (male mice [2]; Table II, oral, 14 days): 1000 mg/kg
- ED50 in respect of convulsions induced by PTZ ([3]; 30 min): 200 mg/kg
- ED50 in respect of convulsions induced by MCE [4]: > 200 mg/kg

SMILES: CN1C(=O)OC(C)(C)C1=O [TRIM, trimethadione, reference compound]
- selectivity ratio (in vivo [1]; Therapeutic index MCE, MCE): 4.4
- selectivity ratio (in vivo [1]; Therapeutic index PTZ, PTZ): 8.7
- ED50 [4]: 500 mg/kg
- selectivity ratio (in vivo [5]; [10]): 2
- selectivity ratio (in vivo [5]; [11]): 4

SMILES: CCCC(CCC)C(=O)O [VALP, sodium valproate, reference compound]
- selectivity ratio (in vivo [1]; Therapeutic index MCE, MCE): 4
- selectivity ratio (in vivo [1]; Therapeutic index PTZ, PTZ): 4
- selectivity ratio (in vivo [5]; [10]): 2.8
- selectivity ratio (in vivo [5]; [11]): 2.7

Reference: US4960900A, “Oxyimino derivatives of thiazole, method of preparation and use in therapy” (priority 1987, dated 1990)
